Activity calls are given as the source filed them.
Experiments:
[1] = Shn3 3'UTR reporter inhibitors, dose response, cell-based, Clone20 osteoblasts, firefly luciferase, cherry-picked (AID 624132); assay type: functional;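 further: firefly luciferase luminescence from reporter carrying the Shn3 3'UTR in osteoblasts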
[2] = control 3'UTR Renilla luciferase suppression, dose response, counter-screen for Shn3 inhibitor project, cell-based, Clone20-Shn3RL, cherry-picked (AID 624133); assay type: functional
[3] = tested on: A-375; test: MITF: Counter assay: A375 proliferation Measured in Cell-Based System Using Plate Reader - 2084-03_Inhibitor_Dose_DryPowder_Activity. [Related pubchem assays (depositor defined):AID488944]; assay type: functional; details: Homo sapiens
[4] = biological target: T1, Microphthalmia-associated transcription factor (Homo sapiens, UniProt O75030); test: TRPM1 promoter luciferase signal decrease, dose response, MITF inhibitor project, cell-based, SK-MEL-5, cherry-picked, set 3 (AID 493073); assay type: functional
T1 sequence (O75030 whole entry): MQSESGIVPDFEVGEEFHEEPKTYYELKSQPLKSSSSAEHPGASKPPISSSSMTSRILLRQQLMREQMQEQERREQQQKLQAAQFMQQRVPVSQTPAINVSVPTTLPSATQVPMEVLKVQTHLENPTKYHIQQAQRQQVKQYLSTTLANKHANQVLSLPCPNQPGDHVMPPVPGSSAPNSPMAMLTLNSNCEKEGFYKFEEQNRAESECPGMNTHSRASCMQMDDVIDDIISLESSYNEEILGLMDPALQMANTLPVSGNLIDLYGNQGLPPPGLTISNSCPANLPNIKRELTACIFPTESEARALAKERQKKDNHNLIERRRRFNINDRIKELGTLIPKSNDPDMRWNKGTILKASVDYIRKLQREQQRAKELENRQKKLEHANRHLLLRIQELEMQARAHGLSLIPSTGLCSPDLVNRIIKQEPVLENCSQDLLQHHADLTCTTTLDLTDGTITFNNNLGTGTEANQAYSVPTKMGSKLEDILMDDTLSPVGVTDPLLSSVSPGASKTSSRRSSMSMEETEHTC

[5] = Luminescence Cell-Based Dose Confirmation HTS to Identify Inhibitors of Platelet Dense Granule Release. [Related pubchem assays: 1663 (Primary HTS), 1678 (Summary of Project)]; assay type: functional
[6] = biological target: Luciferin 4-monooxygenase (Photinus pyralis, UniProt P08659); test: firefly luciferase enzyme inhibitors, dose response, biochemical, luminescence (AID 1891)
Sequence of Luciferin 4-monooxygenase (P08659 whole entry): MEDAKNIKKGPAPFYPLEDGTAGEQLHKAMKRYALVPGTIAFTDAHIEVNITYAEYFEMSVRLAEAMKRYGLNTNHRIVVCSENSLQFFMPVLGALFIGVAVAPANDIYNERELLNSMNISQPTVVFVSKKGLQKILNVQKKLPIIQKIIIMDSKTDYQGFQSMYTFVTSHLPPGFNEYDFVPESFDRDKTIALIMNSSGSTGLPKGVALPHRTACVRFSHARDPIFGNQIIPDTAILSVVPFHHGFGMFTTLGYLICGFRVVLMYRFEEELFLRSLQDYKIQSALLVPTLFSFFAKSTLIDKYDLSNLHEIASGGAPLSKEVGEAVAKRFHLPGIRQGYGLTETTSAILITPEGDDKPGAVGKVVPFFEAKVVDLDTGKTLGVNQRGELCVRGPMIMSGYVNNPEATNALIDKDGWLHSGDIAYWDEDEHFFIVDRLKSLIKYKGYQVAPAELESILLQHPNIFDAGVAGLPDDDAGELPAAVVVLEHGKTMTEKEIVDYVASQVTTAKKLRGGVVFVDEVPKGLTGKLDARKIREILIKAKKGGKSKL

[7] = HepG2 cell cytotoxicity, dose response, cytotoxicity control for Shn3 inhibitor project, CellTiter-Glo, cherry-picked (AID 624134); assay type: functional, cell-based
[8] = tested on: Escherichia coli; test: microbe, parasite or virus in culture
[9] = C. albicans growth with fluconazole, confirmation, fluorescence, retest (AID 2467); assay type: functional, cell-based
[10] = NIH-3T3 fibroblast cytotoxicity, dose response, cytotoxicity control, cell-based, fluorescence, Alamar Blue, secondary assay (AID 2327); assay type: functional;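 further: NIH-3T3 mouse fibroblasts cultured with fluconazole at 8 µg/mL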
[11] = biological target: T2, X-box-binding protein 1 (Homo sapiens, UniProt P17861); assay type: functional, Cricetulus griseus;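 further: confirmatory dose-response counter-screen serving a CHOP assay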
T2 sequence (P17861 whole entry): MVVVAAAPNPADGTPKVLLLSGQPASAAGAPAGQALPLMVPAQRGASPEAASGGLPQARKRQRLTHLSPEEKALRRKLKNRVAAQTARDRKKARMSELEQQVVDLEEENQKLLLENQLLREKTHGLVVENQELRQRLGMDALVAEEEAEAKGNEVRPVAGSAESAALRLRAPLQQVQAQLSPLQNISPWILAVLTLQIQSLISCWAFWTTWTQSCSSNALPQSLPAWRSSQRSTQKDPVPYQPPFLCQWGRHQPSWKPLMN

[12] = cytotoxicity in HEK-293T cells, dose response, cytotoxicity control for TCR NF-kB inhibitor project, luminescence, T-cell screen hits (AID 489026); assay type: functional, cell-based;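 further: cells exposed to compound about 14 hours before the viability readout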
[13] = biological target: T3, Heat shock factor protein 1 (Mus musculus, UniProt P38532); test: inhibition of MG132-induced HSE-luciferase signal, confirmation, cell-based, NIH3T3, luminescence, dose retest (AID 2382); assay type: functional;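 further: NIH3T3 fibroblasts with HSF1-driven luciferase reporter stressed by proteasome inhibitor MG132; luminescence from HSF1-driven luciferase expression after 8 hours of MG132 stress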
T3 sequence (P38532 whole entry): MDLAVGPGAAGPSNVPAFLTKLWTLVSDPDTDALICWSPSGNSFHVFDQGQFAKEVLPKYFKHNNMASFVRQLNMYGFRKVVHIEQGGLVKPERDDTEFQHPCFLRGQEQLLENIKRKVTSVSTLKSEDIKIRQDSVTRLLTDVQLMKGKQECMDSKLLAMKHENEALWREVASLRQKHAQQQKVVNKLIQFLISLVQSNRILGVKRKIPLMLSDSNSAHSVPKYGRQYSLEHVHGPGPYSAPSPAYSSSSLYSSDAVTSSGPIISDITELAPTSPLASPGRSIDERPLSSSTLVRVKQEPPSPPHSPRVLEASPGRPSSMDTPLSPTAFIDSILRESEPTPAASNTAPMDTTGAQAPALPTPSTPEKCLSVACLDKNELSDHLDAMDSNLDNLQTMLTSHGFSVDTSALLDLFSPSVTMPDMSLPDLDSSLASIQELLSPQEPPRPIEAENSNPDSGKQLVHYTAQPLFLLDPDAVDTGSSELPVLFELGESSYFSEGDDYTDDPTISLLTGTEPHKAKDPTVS

[14] = cells; assay type: functional, cell-based
[15] = cells; assay type: functional, cell-based; remark: listed apart in the source
[16] = biological target: Mitogen-activated protein kinase 10 (Homo sapiens, UniProt P53779); test: Dose response biochemical screening assay for inhibitors of c-Jun N-Terminal Kinase 3 (JNK3). [Related pubchem assays: 746 ]
Sequence of Mitogen-activated protein kinase 10 (P53779 whole entry): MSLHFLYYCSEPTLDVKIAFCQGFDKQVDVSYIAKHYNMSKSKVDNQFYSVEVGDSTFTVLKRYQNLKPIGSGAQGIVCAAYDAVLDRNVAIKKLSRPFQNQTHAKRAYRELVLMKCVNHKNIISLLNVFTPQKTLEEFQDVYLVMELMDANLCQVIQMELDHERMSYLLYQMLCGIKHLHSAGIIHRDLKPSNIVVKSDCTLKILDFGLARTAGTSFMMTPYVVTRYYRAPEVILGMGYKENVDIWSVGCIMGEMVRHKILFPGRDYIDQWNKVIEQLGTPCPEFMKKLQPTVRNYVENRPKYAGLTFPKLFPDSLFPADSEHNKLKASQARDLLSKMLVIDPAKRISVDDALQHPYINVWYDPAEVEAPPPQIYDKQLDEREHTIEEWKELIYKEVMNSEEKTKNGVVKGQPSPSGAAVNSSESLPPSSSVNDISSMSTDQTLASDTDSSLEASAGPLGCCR

[17] = biological target: Intestinal-type alkaline phosphatase (Homo sapiens, UniProt P09923); test: Dose Response confirmation of uHTS hits from a small molecule inhibitors of human intestinal alkaline phosphatase via a luminescent assay. [Related pubchem assays (depositor defined):AID2544, AID2574]; assay type: functional
Sequence of Intestinal-type alkaline phosphatase (P09923 whole entry): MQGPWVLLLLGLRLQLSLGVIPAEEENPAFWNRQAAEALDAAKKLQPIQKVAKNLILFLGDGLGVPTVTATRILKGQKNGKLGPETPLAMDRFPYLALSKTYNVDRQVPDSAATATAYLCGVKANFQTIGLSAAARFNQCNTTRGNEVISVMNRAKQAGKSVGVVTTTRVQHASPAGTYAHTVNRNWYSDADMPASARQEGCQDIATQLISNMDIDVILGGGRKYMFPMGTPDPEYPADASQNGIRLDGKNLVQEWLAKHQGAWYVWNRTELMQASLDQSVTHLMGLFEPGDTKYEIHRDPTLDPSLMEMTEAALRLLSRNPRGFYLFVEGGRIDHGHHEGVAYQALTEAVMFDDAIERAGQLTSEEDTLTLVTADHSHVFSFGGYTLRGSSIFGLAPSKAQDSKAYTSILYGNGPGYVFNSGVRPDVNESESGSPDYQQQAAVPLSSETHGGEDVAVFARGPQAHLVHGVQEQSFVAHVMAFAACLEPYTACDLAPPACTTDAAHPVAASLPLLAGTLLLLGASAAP

[18] = biological target: T4, Aryl hydrocarbon receptor (Homo sapiens, UniProt P35869); test: Luminescence-based cell-based high throughput dose response assay for activators of the Aryl Hydrocarbon Receptor (AHR). [Related pubchem assays: 2796 (Primary screen (AHR activators in singlicate)), 2845 (Confirmation screen (AHR activators in triplicate)), 434939 (Counterscreen (PXR activators in triplicate)), 2804 (Summary (AHR activators))]; assay type: ADME
T4 sequence (P35869 whole entry): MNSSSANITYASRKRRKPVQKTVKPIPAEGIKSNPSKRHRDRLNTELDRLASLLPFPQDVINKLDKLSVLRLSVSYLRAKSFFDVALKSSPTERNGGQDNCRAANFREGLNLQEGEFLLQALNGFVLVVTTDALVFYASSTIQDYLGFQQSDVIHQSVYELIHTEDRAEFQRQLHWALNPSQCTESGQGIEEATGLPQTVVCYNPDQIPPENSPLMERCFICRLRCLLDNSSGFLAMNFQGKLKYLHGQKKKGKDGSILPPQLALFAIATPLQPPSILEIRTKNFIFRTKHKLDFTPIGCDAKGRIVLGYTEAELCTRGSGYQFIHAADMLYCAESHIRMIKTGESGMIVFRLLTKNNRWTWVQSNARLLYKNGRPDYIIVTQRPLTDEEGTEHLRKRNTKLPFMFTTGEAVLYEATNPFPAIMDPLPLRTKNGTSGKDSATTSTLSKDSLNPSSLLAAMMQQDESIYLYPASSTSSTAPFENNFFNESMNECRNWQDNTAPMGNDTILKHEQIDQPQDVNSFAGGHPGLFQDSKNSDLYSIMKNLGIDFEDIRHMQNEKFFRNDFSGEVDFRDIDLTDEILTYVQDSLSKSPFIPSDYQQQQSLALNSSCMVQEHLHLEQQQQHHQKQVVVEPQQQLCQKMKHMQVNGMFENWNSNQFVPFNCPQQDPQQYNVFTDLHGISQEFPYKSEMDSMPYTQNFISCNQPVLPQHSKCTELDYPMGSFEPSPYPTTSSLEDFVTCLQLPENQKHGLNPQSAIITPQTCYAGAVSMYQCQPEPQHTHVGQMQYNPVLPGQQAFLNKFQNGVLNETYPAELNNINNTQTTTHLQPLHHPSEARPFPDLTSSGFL

[19] = biological target: T5, CAAX prenyl protease 2 (Saccharomyces cerevisiae S288c, UniProt Q03530); assay type: biochemical
T5 sequence (Q03530 whole entry): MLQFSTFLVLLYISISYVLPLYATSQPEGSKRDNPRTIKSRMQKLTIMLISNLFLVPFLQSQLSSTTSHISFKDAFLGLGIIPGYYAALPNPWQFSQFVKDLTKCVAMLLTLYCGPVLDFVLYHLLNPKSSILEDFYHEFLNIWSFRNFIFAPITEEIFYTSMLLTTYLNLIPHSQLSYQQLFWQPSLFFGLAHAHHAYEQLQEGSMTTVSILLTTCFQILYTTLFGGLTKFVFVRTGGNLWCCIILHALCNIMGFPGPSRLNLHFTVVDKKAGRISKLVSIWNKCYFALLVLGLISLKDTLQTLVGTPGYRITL

[20] = biological target: T6, Short transient receptor potential channel 4 (Mus musculus, UniProt Q9QUQ5); test: mouse TRPC4 channel inhibitors, dose response, cell-based, HEK293 TRPC4/mu-opioid, Fluo-4 calcium (AID 434942); assay type: functional;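 further: potency of inhibitors blocking the TRPC4 calcium response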
T6 sequence (Q9QUQ5 whole entry): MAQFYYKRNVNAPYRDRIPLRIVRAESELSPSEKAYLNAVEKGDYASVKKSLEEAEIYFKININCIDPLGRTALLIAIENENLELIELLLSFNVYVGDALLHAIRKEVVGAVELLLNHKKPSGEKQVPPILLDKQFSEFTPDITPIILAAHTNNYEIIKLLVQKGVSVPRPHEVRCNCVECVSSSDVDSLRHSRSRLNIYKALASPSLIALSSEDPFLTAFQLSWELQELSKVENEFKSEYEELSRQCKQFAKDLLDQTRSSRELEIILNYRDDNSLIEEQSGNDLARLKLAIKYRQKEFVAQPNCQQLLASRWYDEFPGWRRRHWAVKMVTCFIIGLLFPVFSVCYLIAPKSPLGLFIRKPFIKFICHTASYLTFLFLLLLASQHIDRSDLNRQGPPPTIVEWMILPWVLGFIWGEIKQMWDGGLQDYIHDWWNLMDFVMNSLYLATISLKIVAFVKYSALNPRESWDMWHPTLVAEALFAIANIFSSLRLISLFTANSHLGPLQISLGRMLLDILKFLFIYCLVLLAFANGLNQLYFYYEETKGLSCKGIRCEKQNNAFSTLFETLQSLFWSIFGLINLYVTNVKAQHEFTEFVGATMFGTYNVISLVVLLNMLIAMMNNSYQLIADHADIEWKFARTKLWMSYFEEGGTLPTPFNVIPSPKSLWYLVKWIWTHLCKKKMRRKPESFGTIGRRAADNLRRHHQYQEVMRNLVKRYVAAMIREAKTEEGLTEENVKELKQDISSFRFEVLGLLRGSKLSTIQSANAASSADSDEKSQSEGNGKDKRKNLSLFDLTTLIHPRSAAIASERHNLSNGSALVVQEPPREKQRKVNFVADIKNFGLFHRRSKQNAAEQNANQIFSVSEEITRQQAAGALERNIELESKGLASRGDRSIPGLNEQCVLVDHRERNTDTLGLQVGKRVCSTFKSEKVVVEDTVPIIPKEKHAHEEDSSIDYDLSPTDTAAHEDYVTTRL

[21] = biological target: T6, Short transient receptor potential channel 4; test: mouse TRPC4 channel activators, dose response, cell-based, HEK293 TRPC4/mu-opioid, Fluo-4 calcium (AID 434937); assay type: functional

SMILES: O=C(/C=C/Nc1ccccc1Br)c1ccccn1
- AC50 [1]: 1.8 µM (active)
- AC50 [2]: 30.4 µM (active)
- AC50 [3]: 27.6 µM (active)
- AC50 [4]: 0.899 µM (active)
- EC50 [5]: 4.02 µM (active)
- EC50 [6]: 1.34 µM (active)
- AC50 [7]: 47.7 µM (active)
- AC50 [8]: > 150 µM (inactive)

SMILES: C=CCSc1nc(-c2ccc(OCCCC)cc2)n[nH]1
- EC50 [9]: > 38 µM (not active)
- EC50 [10]: > 150 µM (inactive)
- Absolute IC50 (XBP1) [11]: < 10 µM

SMILES: CC(C)c1ccc(C2C3CSCC=C3C(C#N)=C(N)C2(C#N)C#N)cc1 (stereo unspecified)
- Absolute IC50 (XBP1) [11]: 10 µM

SMILES: Cc1ccc(NS(=O)(=O)c2ccc(C(=O)NC3CCN(Cc4ccccc4)CC3)cc2)cc1
- AC50 [1]: 4.69 µM (active)
- AC50 [2]: 12.9 µM (active)
- IC50 [12]: 76.2 µM (inactive)
- AC50 [7]: 14.8 µM (active)

SMILES: O=C1CC(c2cc(F)ccc2F)c2cc3c(cc2N1)CCC3 (stereo unspecified)
- IC50 [12]: > 80 µM (inactive)

SMILES: COC(=O)[C@]12OC[C@]34C([C@@H](O)[C@@H]1O)[C@]1(C)CC(=O)C(O)=C(C)[C@@H]1C[C@H]3OC(=O)[C@H](O)[C@@H]24 (stereo partly specified)
- EC50 [13]: 1.01 µM (active)
- IC50 [12]: > 80 µM (inactive)
- EC50 [14]: > 350 µM (not active)
- EC50 [15]: > 350 µM (not active)

SMILES: N#C/C(=C(\O)c1ccco1)c1ccccn1
- IC50 [16]: 51.9 µM (not active)
- IC50 [17]: > 100 µM (inactive)

SMILES: COc1ccc(-c2oc3ccc(N4CCOCC4)cc3c2C#Cc2ccc(N)cc2)cc1
- EC50 [18]: 5.72 µM (active)
- AC50 [19]: 5.02 µM (active)

SMILES: Cn1c(C(=O)N2CCC(C(N)=O)CC2)cc2cc(Cl)ccc21
- EC50 [18]: 0.91 µM (active)

SMILES: Cc1cc(NCc2ccccc2)nc2ccccc12
- EC50 [20]: 3.35 µM (active)
- EC50 [21]: 8.41 µM (active)

SMILES: Fc1ccc(NC(S)=NCCc2ccccn2)cc1
- EC50 [21]: 2.11 µM (active)

SMILES: COc1ccc(NC(=O)CCN2CCN(S(=O)(=O)c3cc(Cl)ccc3OC)CC2)cc1
- IC50 [17]: > 100 µM (inactive)

SMILES: CC(C)c1ccccc1NC(=O)Cn1c(/C=C/c2ccccc2)nc2ccccc21
- Absolute IC50 (XBP1) [11]: 10 µM

From ChEMBL document CHEMBL1201862, “PubChem BioAssay data set” (2004)
